Reference: ChEMBL document CHEMBL1121620, “Glycerides as prodrugs. 2. 1,3-Dialkanoyl-2-(2-methyl-4-oxo-1,3-benzodioxan-2-yl)glycerides (cyclic aspirin triglycerides) as antiinflammatory agents” (1980)

What was measured:
Format in all cases: functional
[1] = test system: Rattus norvegicus; test: Antiedema efficacy was measured in male Sprague-Dawley rats relative to aspirin; activity expressed as percent of aspirin
[2] = species: Rattus norvegicus; test: Compound was tested for 50% inhibition of incidence of lesions (UD50) in rat
[3] = Ratio between ulcerogenicity and anti edema activity (UD50/ED25)
[4] = species: Rattus norvegicus; test: Effective dose of compound to produce 25% inhibition in rat; Value ranges from 326-499

With CCCCCCCCCC(=O)OCC(COC(=O)CCCCCCCCC)OC1(C)OC(=O)c2ccccc2O1 (configuration not stated) the Activity [1] was 100%, the UD50 [2] was 4102 µM/kg and the Ratio [3] was 10.6.

For CCCCCCCCCCCCCCCC(=O)OCC(COC(=O)CCCCCCCCCCCCCCC)OC1(C)OC(=O)c2ccccc2O1 (configuration not stated), the Activity [1] was 62%.

In the case of CC(=O)Oc1ccccc1C(=O)O [ASPIRIN], the Activity [1] was 100% and the ED25 [4] was 402 µM/kg.

In the case of CC(=O)OCC(COC(C)=O)OC1(C)OC(=O)c2ccccc2O1 (configuration not stated), the Activity [1] was 62%.
